These results are taken from patent US20170165266A1 (Celgene Corporation, priority 2010, published 2017).

Structures can show the parent of a compound that is named as a salt. Where only a bound is given, the exact number is not on record here.

What is called IC50 is the concentration needed to halve the response being measured. A lower IC50 goes with higher potency. A word on the EC50: it is the concentration at which the effect is half-maximal.

The subject of test [1] is bleomycin induced dermal fibrosis. The test can be described thus: Bleomycin induced dermal fibrosis mouse model, prevention of fibrosis. In kind it is in vivo, DBA/2 mice. To be noted: 30 mg/kg, PO, QD, p<0.0001.
Description: Bleomycin was obtained from the pharmacy of the University of Erlangen-Nuremberg and freshly prepared once a week. Skin fibrosis was induced in 6-week-old DBA mice by local intracutaneous injections of 100 μl of bleomycin dissolved in 0.9% NaCl, at a concentration of 0.5 mg/ml, every other day in defined areas of 1.5 cm2 on the upper back.
In this model, a localized dermal fibrosis is induced by intradermal injections with bleomycin every other day for 3 weeks. […] To evaluate potential effects on prevention of fibrosis, treatment was initiated simultaneously with the first bleomycin injection. […]
Dermal thickness was determined by staining with hematoxylin and eosin and activated fibroblasts by using immunohistochemistry for alpha smooth mucle actin (α-SMA). […] Dermal thickness was analyzed with a Nikon Eclipse 80i microscope (Nikon, Badhoevedorp, The Netherlands) by measuring the maximal distance between the epidermal-dermal junction and the dermal-subcutaneous fat junction at 4 different skin sections in each mouse. […]
For quantification of myofibroblasts, skin sections were deparaffinized and incubated with 5% bovine serum albumin for 60 minutes. Cells positive for α-SMA were detected by incubation with monoclonal anti-α-SMA antibodies (clone 1A4; Sigma-Aldrich, Steinheim, Germany) for 2 hours at room temperature followed by incubation with 3% hydrogen peroxide for 10 minutes. […]
In test [2] the test system is IgG production. Put plainly: IgG production in B cell differentiation assay (ELISA). To be noted: Homo sapiens. In kind it is cell-based. The method, then:
(§1) Step 1—B cell Activation—day 0 through day 4: Prepare fresh B cell cocktail by adding 50 μg/mL of human transferrin to B cell media. (Iscoves +10% PFBS, 1% P/S, and 5 μg/mL human insulin). Filter required volume of media needed for experiment through a […] filter. Add B cell differentiation cocktail (final concentration): recombinant human IL-2 (20 U/mL), IL-10 (50 ng/mL), IL-15 (10 ng/mL), CD40 Ligand/TNFSFS/histidine-tagged (50 ng/mL), polyHistidine mouse IgG1 antibody (5 μg/mL), and ODN 2006-Human TLR9 ligand (10 μg/mL) to cells. Five milliliters (1×10^5/ml) of CD19+ B cell were added to each well of a 6 well flat-bottom plate (final cell count=5×10^5/well). Five μL (1×)±compound/DMSO was added to each test well (0.1% final DMSO) and incubated at 37° C. for 4 days.
(§2) Step 2—Plasmablast Generation—day 4 through day 7: Cells were harvested and counted on the cell counter; an aliquot was removed for flow analysis, the remaining cells were washed with PBS. […]
(§3) On day 7, cells were harvested and counted on the cell counter. […]
(§4) Supernatants (from section 8.4.3) were harvested and analyzed by ELISA for IgG and IgM production (ZeptoMetrix Corp. Buffalo, N.Y.).
(§5) The data was graphed using GraphPad Prism 5.0 software. […] The results for test compounds in the Ig assays were expressed as the percentage inhibition relative to control DMSO values.
For orientation: In an ELISA, binding on a coated surface is turned into a signal by an enzyme label.

Test [3] has as its system bleomycin induced dermal fibrosis. The test can be described thus: Modified bleomycin induced dermal fibrosis mouse model, regression of established fibrosis. In kind it is in vivo, DBA/2 mice. To be noted: 30 mg/kg, PO, QD, p<0.0001.
Description: Skin fibrosis was induced in 6-week-old DBA mice by local intracutaneous injections of 100 μl of bleomycin dissolved in 0.9% NaCl, at a concentration of 0.5 mg/ml, every other day in defined areas of 1.5 cm2 on the upper back.
Dermal thickness was determined by staining with hematoxylin and eosin and activated fibroblasts by using immunohistochemistry for alpha smooth mucle actin (α-SMA). […] Skin sections were stained with hematoxylin/eosin for better visualization of the tissue structure. Dermal thickness was analyzed with a Nikon Eclipse 80i microscope (Nikon, Badhoevedorp, The Netherlands) by measuring the maximal distance between the epidermal-dermal junction and the dermal-subcutaneous fat junction at 4 different skin sections in each mouse. The evaluation was performed by 2 independent examiners.
Test [4] concerns IgM production. The test can be described thus: IgM production in B cell differentiation assay (ELISA). In kind it is cell-based. To be noted: Homo sapiens. The method, then:
as §1, §2, §3, §4, §5

The test system of test [5] is IL-8. The test can be described thus: IL-8 production in LPS-stimulated hPBMC (Luminex). In kind it is cell-based. Conditions: Homo sapiens; LPS 1 ng/ml, 18 hours. The method, then: (§6) 50 ml human buffy coat was aliquoted 25 ml each into two 50 ml conical tubes and 25 ml sterile HBSS was added to each conical tube. The tubes were gently mixed by inverting. Fifteen ml of room temperature Ficoll-Paque Plus (GE Healthcare (location); cat #17-1440-02) was aliquoted into four 50 ml conical tubes. Then 25 ml of the Buffy coat/HBSS mixture was layered gently and slowly on top of the Ficoll. The samples were centrifuged at 450 rpm for 35 minutes. The top layered containing plasma was pipetted off and discarded. The interface containing mononuclear cells was transferred into two 50 ml conical tubes. Both conical tubes were filled to total volume of 50 ml with HBSS and centrifuged at 1200 rpm for 10 minutes. The cells were washed again in HBSS and spun at 1000 rpm for 10 minutes. Cell pellet was resuspended with 20 ml RPMI complete medium (RPMI/5% human sera/1× pen/strep/glut) and counted.
(§7) One hundred μl (2×10^6/ml) of hPBMCs were added to each well of a 96 well flat-bottom plate (final cell count=2×10^5/well) and incubated at 37° C. for 1 hour. […]
(§8) Supernatant samples were analyzed for cytokines in multiplex format according to the manufacturer's instructions (Millipore, Billerica, Mass. 01821) using a Luminex IS100 instrument. […]

For test [6], the system named is MIP-1β. The test can be described thus: MIP-1β production in LPS-stimulated hPBMC (Luminex). In kind it is cell-based. Conditions: Homo sapiens; LPS 1 ng/ml, 18 hours. The method, then: as §6, §7, §8
The test system of test [7] is NK cell IFN-γ production. The test can be described thus: NK IgG-induced interferon-gamma (IFN-gamma) assay. In kind it is cell-based, human. The method, then:
NK cells from healthy donors were isolated from buffy coat blood by negative selection using the RosetteSep NK cell enrichment cocktail (Stem Cell Technologies, Vancouver, BC) prior to Ficoll-Hypaque (Fisher Scientific Co LLC, PA) density gradient centrifugation following the manufacturers' instructions. CD56+ NK cells were isolated to ˜85% purity, as determined by flow cytometry (BD Biosciences, CA). Ninety-six-well flat-bottom plates were coated with 100 μg/mL of human IgG (Sigma) overnight at 4° C. The next day, unbound IgG was washed away with cold 1× PBS. NK cells were then plated in the IgG-coated 96-well plates at 2×10^5 cells per well in 180 μL RPMI-1640 Media and 10 ng/mL of rhIL-2 (R & D Systems, MN) was added. […] Final DMSO concentrations were 0.25%. After 48 hours, the supernatants were harvested and analyzed by ELISA for IFN-γ production. […] The data are presented in two ways, (1) as the absolute amount if IFN-γ produced (pg/mL±SEM) and (2) as the percentage of the amount of IFN-γ produced in the presence of 1 μM pomalidomide.

Test [8] concerns Rituximab coated lymphoma cells (WSU-DLCL2, Farage, DoHH2, Riva, Raji). The test can be described thus: ADCC assay: NK cell-mediated ADCC (LDH release). In kind it is cell-based, human. To be noted: 0.01 to 10 μM, 48 hours pretreatment, effector:target 10:1. From the text: NK cells from healthy donors were isolated from buffy coat blood by negative selection using the RosetteSep NK cell enrichment cocktail (Stem Cell Technologies, Vancouver, BC) prior to Ficoll-Hypaque (Fisher Scientific Co LLC, PA) density gradient centrifugation following the manufacturers' instructions. CD56+ NK cells were isolated to ˜85% purity, as determined by flow cytometry (BD Biosciences, CA). […] Various lymphoma cell lines (GCB-DLBCL: WSU-DLCL2 and Farage; Follicular lymphoma:DoHH2; ABC-DLBCL: Riva; Burkitt's lymphoma [BL]: Raji) were treated with 5 μg/mL rituximab for 30 minutes at 37° C. Unbound rituximab was washed off, target cells (5×103/100 μL/well) were added to the pretreated effector cells (NK cells) at a 10:1 ratio, and the two were co-incubated for 4 hours at 37° C. […] Using an aliquot of supernatant (50 μL), NK cell cytotoxicity against tumor cells was analyzed using a standard lactate dehydrogenease (LDH) release assay to measure ADCC (CytoTox 96 Non-Radioactive Cytoxicity Assay, Promega, WI). Spontaneous release by target cells alone was <15% of the maximum release, as determined with target cells lysed in 1% Triton X-100. […] The percentage of specific lysis was calculated according to the formula: Percentage specific lysis=100×(experimental−effector spontaneous−target spontaneous)/(target maximum−target spontaneous).
In general terms: LDH leaks from cells whose membrane has failed.

For test [9], the system named is IL-1β. Put plainly: IL-1β production in LPS-stimulated hPBMC (Luminex). In kind it is cell-based. To be noted: Homo sapiens; LPS 1 ng/ml, 18 hours. The method, then:
as §6, §7, §8

The subject of test [10] is IL-10. The test can be described thus: IL-10 production in anti-human CD3-stimulated human T cells. In kind it is cell-based. The method, then:
(§9) The test compounds were prepared as stock solutions of 4 mM in DMSO. T cells were isolated from buffy coat by negative selection using the RosetteSep® T Cell Enrichment Cocktail according to manufacturer's procedures. All 96-well plates were pre-coated with 3 μg/mL anti-human CD3 antibody in 100 μL 1× PBS for 4 hours at 37° C. The plates were washed 3 times with RPMI-1640 Complete Media prior to the T cell assay. The T cells were then plated in anti-CD3-pre-coated plates at a density of 2.5×10^5 cells/well in 180 μL RPMI-1640 Complete Media. […] The final DMSO concentrations were 0.25%. The plates were incubated for 48 hours at 37° C., 5% CO2. After 48 hours, the supernatants were harvested and tested by a multiplex cytometric bead array (CBA) assay for the following cytokines/chemokines: IL-2, IL-3, IL-5, IL-10, IL-13, IL-15, IL-17A, GM-CSF, G-CSF, IFN-γ, TNF-α, and RANTES. The CBA plates were analyzed on the Luminex IS100 instrument. Data from each donor was graphed using GraphPad Prism 5.0 software and expressed as mean pg/mL±SEM and % of DMSO control±SEM.

Test [11] concerns TNF-α. The test can be described thus: TNF-α production in LPS-stimulated hPBMC (Luminex). In kind it is cell-based. To be noted: Homo sapiens; LPS 1 ng/ml, 18 hours. The method, then:
as §6, §7, §8

For test [12], the system named is IL-5. Put plainly: IL-5 production in anti-human CD3-stimulated human T cells. In kind it is cell-based. To be noted: 48 hours. The protocol: as §9
Test [13] deals with anti-CD3-stimulated human T cells. The test can be described thus: Cytokine and chemokine production in anti-human CD3-stimulated human T cells (Luminex). To be noted: 48 hours. In kind it is cell-based. The method, then: as §9
In test [14] the test system is IL-10. The test can be described thus: IL-10 production in LPS-stimulated hPBMC (Luminex). In kind it is cell-based, human. To be noted: at 10 μM; used as upper constraint for EC50s. The method, then: as §6, §7, §8
Test [15] deals with bleomycin induced dermal fibrosis. Conditions: previously shown, Akhmetshina et al. 2009; cited from earlier work.

Consider `Cc1nc2cccc(N)c2c(=O)n1C1CCC(=O)NC1=O` (stereo not drawn) [test compound, 3-(5-amino-2-methyl-4-oxoquinazolin-3(4H)-yl)piperidine-2,6-dione], for which the “prevention of dermal thickening” value in test [1] (three weeks) is reported as “approximately 22±0.49%”. Besides, in test [1], the “reduction of number of α-SMA+ myofibroblasts in lesional skin” value stood at 30±0.23%. The IC50 in [2] (Normal (n = 3)) is 0.061 µM; in [2] (SLE (n = 3)), 0.046 µM; in test [4] (Normal (n = 3)), 0.023 µM; in [4] (SLE (n = 3)) it was 0.03 µM; in [5], > 10 µM; in [6], > 10 µM. The IC50 in [9] turned out to be 0.054 µM; in [11], 0.034 µM. Also, in [3], the “reduction of bleomycin induced dermal thickening” value was found to be 22±0.28%. In test [7] (Homo sapiens, immobilized IgG and rhIL-2, 48 hours, maximal = IFN-γ produced with 1 μM pomalidomide, read-out: EC50, half-maximal IFN-γ production), the EC50 was 0.0015 µM. Further, the “NK cell IFN-γ production” value in test [7] (immobilized IgG and IL-2 stimulation) is reported as “enhanced”. Further, in test [8], the “NK cell-mediated ADCC” value is “induced dose-dependent NK cell-mediated ADCC in all cell lines”. Further, the IL-10 production result in test [10] (at higher concentrations) is given as “inhibited enhancement of IL-10 production”; in [10] (at lower concentrations) it was “enhanced IL-10 production”. In addition, the “increase of IL-5 production” value in [12] (0.01 μM) amounted to 3 fold; in [12] (0.1 μM), 4 fold. In addition, the “IL-2, IL-3, IL-5, IL-10, IL-13, GM-CSF, IFN-γ, RANTES, and TNF-α production in stimulated human T cells” value in test [13] is recorded as “enhanced”.

Consider `Nc1cccc2c1C(=O)N(C1CCC(=O)NC1=O)C2=O` (stereo not drawn) [pomalidomide], for which the “average IL-10 enhancement” value in [14] was 246.9%.

Turning to `Cc1ccc(NC(=O)c2ccc(CN3CCN(C)CC3)cc2)cc1Nc1nccc(-c2cccnc2)n1` [Imatinib mesylate], the “anti-fibrotic effects in bleomycin induced dermal fibrosis” value in test [15] was “potent anti-fibrotic effects”.
